Experimental data as given in patent US6124342A, “Pharmaceutical compositions containing pyrylium compounds, pyrylium salts and process for manufacturing a medicament containing the aforesaid compounds” (priority 1993, dated 2000).
Several values for one entry are separate records, joined by “and”; a condition that tells them apart may be missing. Equal values may be shown once. Read-outs that look alike come from different tables or passages of the source.

Assays:
L-929 cells = assay: Photochemical killing of cultured cancer cells (fluorescence microscope irradiation); conditions: for cytotoxicity at 0.25 µg/mL: read-out: percentage of cells which had died, 0.25 μg/ml; for cytotoxicity at 0.5 µg/mL: read-out: percentage of cells which had died, 0.5 μg/ml; for cell killing without irradiation: compound added, not irradiated; for cytotoxicity at 0.05 µg/mL: read-out: percentage of cells which died, 0.05 μg/ml; for cytotoxicity at 0.075 µg/mL: read-out: percentage of cells which died, 0.075 μg/ml
Experimental: L-929 cells which are typical cultured cancer cells from mice were planted onto a culture medium containing E-MEM +10% FCS. The density of the cells in the medium was 10^6 cells/dish (20 ml). Thereafter, the cells were maintained at 37° C. and cultured for 36 hours. Four such cultures using the same medium were prepared. […] Then radiation of wavelength from 560-610 nm to which the compound 1 is responsive was supplied using a fluorescence microscope for the interval of time indicated in Table 3. Thereafter, each medium was cultured for 12 hours, after which the cells were observed using a microscope.
The light used to irradiate the cells at a wavelength of 600-650 nm.
The cells were irradiated with light of wavelength 700-750 nm.

cancer cells = assay: Uptake by cancer cells; type: cell-based, mice
Experimental: Four such cultures using the same medium were prepared.

nude mice = assay: Acute toxicity test, intravenous injection; type: in vivo; conditions: balanced saline solution; i.v. leg vein; 1 mg/kg; 2 nude mice
Experimental: The compound 1 (Y=I) was dissolved into a balanced saline solution and was injected into each of 2 nude mice of weight 200-400 g through a vein in the leg of the mouse. The amount of solution injected was 1 mg to 1 kg of the weight of each mouse.
The toxicity test of Example 6 was repeated except that the compound 2 was used in place of the compound 1.
The test of Example 6 was repeated except that the compound 1 (Y=I) was dissolved in dimethyl sulfoxide. The amount of solution injected was 1 mg per 1 kg of the mouse's weight. Subsequent injections on further groups of mice were carried out at 5 mg per 1 kg of the mouse's weight and 25 mg per 1 kg of the mouse's weight.
The same test as in Example 8 was carried out except that the active ingredient was compound 2 (Y=I) instead of compound 1.

KATO III [1] = assay: Photochemical treatment of KATO III tumours in nude mice; type: in vivo, human; conditions: Tables 6 and 7
Experimental: (§1) Ten nude mice having weight 200-400 g were selected, and they were separated into five groups referred to as A, B, C, D and E, each containing two nude mice. Each of the mice was inocculated on its back with KATO III, which is a culture of stomach cancer cells from a human patient. The cancer cells were inocculated into the central part of the back of each mouse, after which the mice were kept for ten days. […] The mice in groups A, B and E were injected with the compound 1 (Y=I) in balanced saline solution through a vein in the leg. The amount of compound 1 which was administered to each mouse was 1 mg per 1 kg of the mouse's weight. Thereafter, the cancerous growth in each mouse in the group A and C was irradiated with white light in which the radiation of wavelength 400 nm or less and radiation of wavelength 1000 nm or above was filtered out. In group E, a part of every mouse's back was irradiated with the white light. In each case the amount of irradiation was 50J. Thereafter, the cancerous region of each mouse in the group a to D was observed and the skin of each mouse in the group E was observed.
The same test as in Example 10 was carried out except that the compound 2 was used in place of the compound 1. the results are shown in Table 7.

DNA = assay: Light absorption characteristics under existence of DNA (Table 2); type: physicochemical; conditions: with DNA
Source text: (§2) Typical examples of compounds represented by the formula [I] which can be used as the active ingredient in a medicament for the photochemical treatment of cancer according to the present invention are shown in Table 1 below. Almost all the compound shown in Table 2 have their own absorption peaks in the region 600 nm or above, and have molar absorption coefficients as large as 5-8.5×10^4 l/mol.cm which enables more efficient use to be made of the light in photochemical treatment. Furthermore, compound 1 in Table 2 has an absorption peak in the region below 600 nm, but it has sufficiently strong absorption that it still provides better treatment efficiency at wavelength greater than 600 nm.

skin of each mouse = assay: Irradiation of the back skin of medicated mice without tumour; type: in vivo, nude mice; conditions: for change on irradiation of mice without tumour: group E or E'; for affinity for cancer cells versus normal cells: inferred from group E or E'
Experimental: as §1, with “The amount of compound 1 which was administered to each mouse was 1 mg per 1 kg of the mouse's weight. Thereafter, the cancerous growth in each mouse in the group A and C was irradiated with white light in which the radiation of wavelength 400 nm or less and radiation of wavelength 1000 nm or above was filtered out.” left out

[2] = Light absorption characteristics without DNA (Table 2); type: physicochemical
Source text: as §2

KATO III [3] = assay: Deepness of necrotic tumour after irradiation; type: in vivo, human; conditions: 1 mg/kg; 580 nm (half-width=20 nm); 10J; one day after irradiation
Experimental: Four nude mice of weight 200-400 g were selected and were separated into groups X and Y, each containing two mice. Next, KATO III was inocculated into every mouse in the same way as in Example 10, after which the mice were kept for three weeks to fix the cancer cells. After three weeks the cancer in each mouse had grown and the size of the cancer was about 13 mm wide, 13 mm long and about 8 mm high. Next the mice in group X were injected via the leg with a balanced saline solution of the compound 1, and the mice of Group Y were injected with a balanced saline solution of the compound 16 via the leg. The dose of the compound 1 or 16 was adjusted to be 1 mg of the compound 1 or the compound 16 per 1 kg of the mouse's weight. Subsequently, the mice in group X were irradiated with radiation of wavelength 580 nm (half-width=20 nm) which was separated by means of a filter, and the mice in group Y were irradiated with radiation having a wavelength 720 nm (half-width=20 nm) which was separated with a filter. The amount of energy irradiated was 10J. One day after the irradiation the depth of the tumour which had become necrotic was measured.

[4] = Mus musculus, L929, 12 h, 3 min, 560-610 nm, Y=I
[5] = Mus musculus, L929, 12 h, 5 min, 560-610 nm, Y=I
[6] = Mus musculus, L929, 1 min, 1 min, 600-650 nm, Y=I
[7] = Mus musculus, L929, 0.05 h, 3 min, 600-650 nm, Y=I
[8] = Mus musculus, L929, 5 min, 5 min, 600-650 nm, Y=I

Row | Structure (SMILES) | cell killing without irradiation (L-929 cells) | adverse effects (acute toxicity) (nude mice) | effectiveness in photochemical treatment of human cancer cells growing in live mice (KATO III [1]) | Absorption (max) Peak Under existence of DNA (DNA) [nm] | change on irradiation of mice without tumour (skin of each mouse) | affinity for cancer cells versus normal cells (skin of each mouse) | Molar absorption coefficient ε [2] [L/mol/cm] | Absorption (max) Peak Under no existence of DNA [2] [nm] | other results
1 | Cc1cc(-c2ccc(N(C)C)cc2)cc(-c2ccc(N(C)C)cc2)[o+]1 [Compound 1, 2-methyl-4,6-bis-(4-N,N-dimethylaminophenyl) pyrylium iodide] | not killed and continued to grow in culture | no adverse effects | effective in the photochemical treatment of human cancer cells growing in live mice | 580 | no change was observed | different from the affinity | 84600 | 540 | effectiveness to kill cancer cells (L-929 cells; 0.1-0.5 μg/ml, irradiation 1-5 minutes): effective to kill cancer cells; cytotoxicity at 0.1 µg/mL (L-929 cells; Mus musculus, L929, 12 h, read-out: percentage of cells which had died, 0.1 μg/ml, 5 min, 560-610 nm, Y=I): 100%; cytotoxicity at 0.25 µg/mL (L-929 cells; [4]): ~100%; cytotoxicity at 0.25 µg/mL (L-929 cells; [5]): 100%; cytotoxicity at 0.5 µg/mL (L-929 cells; Mus musculus, L929, 12 h, 1 min, 560-610 nm, Y=I): ~90%; cytotoxicity at 0.5 µg/mL (L-929 cells; [4]): ~100%; cytotoxicity at 0.5 µg/mL (L-929 cells; [5]): 100%; uptake by the cancer cells (cancer cells): rapid; Change of skin (skin of each mouse; Table 6, group E: 1 mg/kg i.v., irradiated 50J): No Change; absorption peak region ([2]; Table 2): below 600 nm; Deepness of died tumour (KATO III [3]): 4.5 mm and 4.8 mm
2 | Cc1cc(-c2ccc(N(C)C)cc2)cc(-c2ccc(N(C)C)cc2)[s+]1 [Compound 2, 2-methyl-4,6-bis-(4-N,N-dimethylaminophenyl)thiopyrylium iodide] | not killed and continued to grow in culture | no ill effects | effective in the photochemical treatment of human cancer cells growing in live mice | 620 | no change was observed | different from the affinity | 49500 | 580 | cytotoxicity at 0.05 µg/mL (L-929 cells; [6]): ~10%; cytotoxicity at 0.075 µg/mL (L-929 cells; [6]): 80%; cytotoxicity at 0.1 µg/mL (L-929 cells; Mus musculus, L929, 1 min, read-out: percentage of cells which died, 0.1 μg/ml, 1 min, 600-650 nm, Y=I): 100%; cytotoxicity at 0.05 µg/mL (L-929 cells; [7]): 80%; cytotoxicity at 0.075 µg/mL (L-929 cells; [7]): 100%; cytotoxicity at 0.1 µg/mL (L-929 cells; Mus musculus, L929, 0.05 h, read-out: percentage of cells which died, 0.1 μg/ml, 3 min, 600-650 nm, Y=I): 100%; cytotoxicity at 0.025 µg/mL (L-929 cells; Mus musculus, L929, 5 min, read-out: percentage of cells which died, 0.025 μg/ml, 5 min, 600-650 nm, Y=I): ~50%; cytotoxicity at 0.05 µg/mL (L-929 cells; [8]): 100%; cytotoxicity at 0.075 µg/mL (L-929 cells; [8]): 100%; cytotoxicity at 0.1 µg/mL (L-929 cells; Mus musculus, L929, 5 min, read-out: percentage of cells which died, 0.1 μg/ml, 5 min, 600-650 nm, Y=I): 100%; killing effect compared with another compound (L-929 cells; with irradiation): greater killing effect than compound 1; Change of skin (skin of each mouse; Table 7, group E': medicated, irradiated): No Change
3 | CN(C)c1ccc(C=Cc2cc(-c3ccccc3)cc(-c3ccccc3)[s+]2)cc1 [Compound 8] | – | – | – | 610 | – | – | – | 650 | –
4 | CN(C)c1ccc(C=CC=Cc2cc(-c3ccccc3)[o+]c(-c3ccccc3)c2)cc1 [Compound 9] | – | – | – | 720 | – | – | – | 660 | –
5 | CN(C)c1ccc(C=CC(C=Cc2ccc(N(C)C)cc2)=Cc2cc(-c3ccccc3)[o+]c(-c3ccccc3)c2)cc1 [Compound 11] | – | – | – | 660 | – | – | – | 625 | –
6 | CCN(CC)c1ccc(C=Cc2ccc(C=Cc3cc(-c4ccccc4)cc(-c4ccccc4)[o+]3)cc2)cc1 [Compound 17] | – | – | – | 720 | – | – | – | 690 | –
